Test results from BindingDB's records for PubMed 35114538 (Institute For Pharmaceutical Research Saarland (Hips), 2022).
Where a SMILES comes first, the peptide text is derived from it. Bridges are numbered along the chain shown (N, C = ends). Triazole bridges read from a SMILES are 1,4-linked. [ ]: non-standard residue; d: D form. Ala(indol-2-yl) = N[C@@H](Cc1cc2ccccc2[nH]1)C(=O)O; Dap(N3) = [N-]=[N+]=NC[C@H](N)C(=O)O; Aha = [N-]=[N+]=NCC[C@H](N)C(=O)O; Pra = C#CC[C@H](N)C(=O)O

Biological target: Carbon storage regulator homolog RsmA (Pseudomonas aeruginosa)
Assay: Binding affinity towards Pseudomonas aeruginosa RsmA measured by fluorescence polarization assay

Structure (SMILES)	IC50
CC(=O)N[C@H](C(=O)N[C@H]1Cc2cnnn2CC[C@@H](C(=O)N[C@@H](Cc2c[nH]c3ccccc23)C(N)=O)NC(=O)[C@H](CC(C)C)NC(=O)[C@H](CCC(=O)O)NC(=O)[C@H](CO)NC1=O)C(C)C	44.4 µM
CC(=O)N[C@H](C(=O)N[C@H]1Cc2cn(nn2)C[C@@H](C(=O)N[C@@H](Cc2c[nH]c3ccccc23)C(N)=O)NC(=O)[C@H](CC(C)C)NC(=O)[C@H](CCC(=O)O)NC(=O)[C@H](CO)NC1=O)C(C)C (Ac-V[Pra]SEL[Dap(N3)]W-NH2; triazole 2-6)	20 µM
CC(=O)N[C@H](C(=O)N[C@H]1CSSC[C@@H](C(=O)N[C@@H](Cc2cc3ccccc3[nH]2)C(N)=O)NC(=O)[C@H](CC(C)C)NC(=O)[C@H](CCC(=O)O)NC(=O)[C@H](CO)NC1=O)C(C)C (Ac-VCSELC[Ala(indol-2-yl)]-NH2; disulfide 2-6)	272 µM
CC(=O)N[C@H](C(=O)N[C@H]1Cn2cc(nn2)C[C@@H](C(=O)N[C@@H](Cc2c[nH]c3ccccc23)C(N)=O)NC(=O)[C@H](CC(C)C)NC(=O)[C@H](CCC(=O)O)NC(=O)[C@H](CO)NC1=O)C(C)C (Ac-V[Dap(N3)]SEL[Pra]W-NH2; triazole 2-6)	22.8 µM
CC(=O)N[C@H](C(=O)N[C@H]1CCn2nncc2C[C@@H](C(=O)N[C@@H](Cc2c[nH]c3ccccc23)C(N)=O)NC(=O)[C@H](CC(C)C)NC(=O)[C@H](CCC(=O)O)NC(=O)[C@H](CO)NC1=O)C(C)C	37 µM
CC(=O)N[C@H](C(=O)N[C@H]1Cc2cn(nn2)CC[C@@H](C(=O)N[C@@H](Cc2c[nH]c3ccccc23)C(N)=O)NC(=O)[C@H](CC(C)C)NC(=O)[C@H](CCC(=O)O)NC(=O)[C@H](CO)NC1=O)C(C)C (Ac-V[Pra]SEL[Aha]W-NH2; triazole 2-6)	30.2 µM
